These results are taken from ChEMBL document CHEMBL4699456 (Bioorg Med Chem Lett, 2020).

Assay type in all cases: ADME, organism-based
The nature of data set [1]: Volume of distribution at steady state in BALB/c mouse at 2 mg/kg, iv. Particulars: in vivo, read-out: Vdss.
Data set [2] is described as follows: Cmax in BALB/c mouse at 10 mg/kg, po. The conditions noted are these: in vivo. Further details: route oral, dose 10 mg/kg.
The nature of data set [3]: AUC in BALB/c mouse at 10 mg/kg, po. Details: dose 10 mg/kg. The conditions noted are these: in vivo.
Data set [4] is described as follows: Oral bioavailability in BALB/c mouse at 10 mg/kg. Particulars: in vivo.

In general, Cmax refers to the peak of the concentration-time curve. What is called AUC is concentration integrated over time. On to `O=C(O)[C@H]1CC[C@H](C(=O)N2CC[C@](c3ccc(C(OCc4c(F)cccc4F)(C(F)(F)F)C(F)(F)F)cc3)(S(=O)(=O)c3ccc(F)cc3)C2)CC1`, for which, in data set [1], the Vd came out at 1.3 L/kg. Besides, the maximum concentration (Cmax) in data set [2] amounted to 2.1 µM. In addition, the AUC in data set [3] came out at 11.3 µM·h. Besides, the bioavailability in data set [4] was 56%.

Turning to `O=C(O)[C@H]1CC[C@H](C(=O)N2CC[C@](c3ccc(C(OCC4CCCCC4)(C(F)(F)F)C(F)(F)F)cc3)(S(=O)(=O)c3ccc(F)cc3)C2)CC1`, the Vd in data set [1] was 1.7 L/kg. This compound displayed a Cmax in data set [2] of 4.9 µM. In data set [3], this compound showed an area under the curve (AUC) of 36.8 µM·h. Moreover, the bioavailability in data set [4] came out at 101%.
